From patent US11970497B2, “Tricyclic AKR1C3 dependent KARS inhibitors” (Novartis AG, priority 2019, dated 2024) come the findings set out here.

Holding throughout (assay type): cell-based
The test system of test [1] is H460 (NRF2 pathway mutant cell line with high AKR1C3 expression). The test is described as follows: In vitro cell proliferation assay (CellTiter-Glo), H460. The settings on record: Homo sapiens, NCI-H460, 72 h; H460 cells, 3 days, CellTiter-Glo, top concentration 10 μM; read-out: H460 Qualified absolute AC50. The gist of the method:
(§1)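 Luminescent CellTiter-Glo readout after 3-day compound exposure at 37 °C; 8-point 1:5 series, top 10 μM final. Seeding: 800 cells/well for H460, 2000 cells/well for Hara, RPMI-1640 plus 10% FBS. AC50 and percentage activity derived after normalizing to DMSO (1%) and MG132 (30 μM) controls.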
A general note: ATP-based viability assays read luminescence as a measure of living cells.

Test [2] relates to Hara (NRF2 pathway wild type cell line with low AKR1C3 expression). The test is described as follows: In vitro cell proliferation assay (CellTiter-Glo), Hara. The conditions noted are these: 72 h; Hara cells, 3 days, CellTiter-Glo, top concentration 10 μM; read-out: HARA Qualified absolute AC50. The gist of the method: as §1
The next test deals with ChaGo-K-1. Briefly: Expanded lung cancer cell line proliferation assay. The settings on record: Homo sapiens; ChaGo-K-1, 72 h, average of PrestoBlue and Cell Titer Glo; AKR1C3 1.5 TPM; read-out: Absolute Qualified AC50. An excerpt:
(§2) Cellular Proliferation Assay to Assess Compound Activity in an Expanded Panel of 57 NRF2 Pathway Mutant and Wild Type Lung Cancer Cell Lines.
(§3) Both the PrestoBlue Cell Viability Reagent and Cell Titer Glo were multiplexed together as the final assay readout. PrestoBlue is a cell permeable resazurin-based solution that utilizes the reducing power of living cells to quantitatively measure their proliferation. Cell Titer Glo measures the amount of ATP present, an indicator of metabolically active cells.
(§4) Expanded Lung Cancer Cell Line Proliferation Assay Outline, Analysis and Profiling Results
(§5) Cells were seeded into 384 well assay plates (Greiner Bio-One, Catalog #781080) using the Thermo Scientific Matrix WellMate microplate dispenser and Thermo Scientific Matrix WellMate small bore disposable tubing cartridges (Catalog #201-30002) in 30 μl of growth media (RPMI-1640 supplemented with 10% fetal bovine serum and 1% penicillin/streptomycin) per well (1000 to 2000 cells/well depending on doubling time). Following cell plating, assay plates were placed into tissue culture incubator at 37° C./5% CO2 overnight. The next day one assay plate for each cell line was used for a Day 0 Cell Titer Glo and PrestoBlue readout. 3 μl of PrestoBlue Cell Viability Reagent (Thermo Scientific, Catalog #A13262) was added to each well and then assay plates were incubated at 37° C./5% CO2 for 30 minutes prior to fluorescence readout on the EnVision 2105 multimode plate reader (Perkin Elmer). Following the PrestoBlue readout 18 μl of Cell Titer Glo (Promega, Catalog #G7572) was then added to each well, allowing plates to incubate at room temperature for 10 minutes prior to luminescence readout on the EnVision. Compound was then added to the remaining assay plates (each cell line run in triplicates) using the Labcyte Inc Echo 555 acoustic liquid handler. Compounds were arrayed into a Labcyte Inc Echo qualified 384 well LDV microplate (Cat #LP-0200-GNF10). Compounds were serially diluted 1:3.16 to generate an 8 point dose response for a final top concentration of 1 μM. DMSO (0.3%) was used as the neutral control (NC) and MG132 (30 μM) was used as the active control (AC). 90 nl of compounds were added to 30 μl of cells using the Labcyte Inc Echo 555 acoustic liquid handler for a final DMSO assay concentration of 0.3%. Following compound addition, assay plates were spun down in a tabletop centrifuge at 500 rpm for 1 minute and then placed into tissue culture incubator at 37° C./5% CO2 for 72 h. Following the 72 h incubation, all assay plates were readout using PrestoBlue and Cell Titer Glo using the same conditions previously described for the Day 0 readout. The Day 0 readout (untreated cells) was used to compare to the 72 h DMSO treated samples on each assay plate as a way of tracking each cell line's fold growth. NC1 control based normalization was used for data analysis in Helios, which incorporates the DMSO neutral control (NC) and MG132 active control (AC) for generating dose response curves that are then used to calculate the Absolute Qualified AC50 calls for each compound and cell line.
(§6) NC1 normalization calculation model: NC1: xn=±(x−NC)/(AC−NC)
(§7) +/− is set by the inhibition type parameter setting where NC and AC are averages (mean or median) over the corresponding NC and AC well values. The Qualified Absolute AC50 values for Compound 36 and Compound 40 are listed in the table below and are represented as the average activity in both the PrestoBlue and Cell Titer Glo assay readouts.
(§8) Absolute Qualified AC50 Values Listed Below are a Representation of Each Compounds' Average Activity in Both the PrestoBlue and Cell Titer Glo Assay Readouts.

For another test, the system named is NCI-H1339. The test is described as follows: Expanded lung cancer cell line proliferation assay. The conditions noted are these: NCI-H1339, 72 h, average of PrestoBlue and Cell Titer Glo; AKR1C3 5.2 TPM; read-out: Absolute Qualified AC50.
Source text: as §2, §3, §4, §5, §6, §7, §8

The subject of the next test is NCI-H2030. The test is described as follows: Expanded lung cancer cell line proliferation assay. The conditions noted are these: Homo sapiens; NCI-H2030, 72 h, average of PrestoBlue and Cell Titer Glo; AKR1C3 232.7 TPM; read-out: Absolute Qualified AC50.
Source text: as §2, §3, §4, §5, §6, §7, §8

The subject of another test is NCI-H23. Briefly: Expanded lung cancer cell line proliferation assay. The settings on record: Homo sapiens; NCI-H23, 72 h, average of PrestoBlue and Cell Titer Glo; AKR1C3 1 TPM; read-out: Absolute Qualified AC50.
Source text: as §2, §3, §4, §5, §6, §7, §8

For another test, the system named is RERF-LC-MS. Briefly: Expanded lung cancer cell line proliferation assay. The settings on record: 72 h, average of PrestoBlue and Cell Titer Glo, AKR1C3 221.6 TPM, read-out: Absolute Qualified AC50.
Source text: as §2, §3, §4, §5, §6, §7, §8

The next test concerns SBC5. The test is described as follows: Expanded lung cancer cell line proliferation assay. The conditions noted are these: Homo sapiens, SBC-5; SBC5, 72 h, average of PrestoBlue and Cell Titer Glo; AKR1C3 5.5 TPM; read-out: Absolute Qualified AC50.
Source text: as §2, §3, §4, §5, §6, §7, §8

The AC50 is the midpoint of the concentration-response curve, whichever way the signal moves. In the case of `CN1c2ccc(F)cc2C(=O)CC12CCN(C(=O)NCc1ccc(F)c(NCCO)c1)CC2` [Example 36, 6′-fluoro-N-(4-fluoro-3-((2-hydroxyethyl)amino)benzyl)-1′-methyl-4′-oxo-3′,4′-dihydro-1′H-spiro[piperidine-4,2′-quinoline]-1-carboxamide], the AC50 is 78 nM in test [1]; 1560 nM in test [2]; over 1000 nM in the test on ChaGo-K-1; over 1000 nM in the test with NCI-H1339; 648 nM with NCI-H2030; over 1000 nM in the test with NCI-H23. Also, the AC50 in the test with RERF-LC-MS and in the test with SBC5 was over 1000 nM each time.
As to `O=C1CC2(CCN(C(=O)NCc3ccc(F)cc3)CC2)Nc2ccc(F)cc21` [Example 40], the AC50 was 83 nM in test [1]; 1790 nM in test [2]; over 1000 nM in the test with ChaGo-K-1; over 1000 nM in the test on NCI-H1339; 364 nM in the test with NCI-H2030; over 1000 nM with NCI-H23. Also, the AC50 with RERF-LC-MS and in the test with SBC5 was over 1000 nM in each case.
